Reference: patent US20250145594A1, “MODULATORS OF THE INTEGRATED STRESS PATHWAY” (Calico Life Sciences LLC, priority 2020, published 2025)

System: ATF4 luciferase reporter in HEK293T cells
Experiment: ATF4-Luc assay (in vitro model of VWMD)
Format: cell-based, human
Details: HEK293T cells carrying the ATF4 luciferase reporter, 1 μg/mL tunicamycin, One Glo luminescence
Summary of the method: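 Tunicamycin (1 μg/mL) stress with co-added compound for 7 hours in HEK293T cells stably carrying an ATF4 5′-UTR–luciferase reporter. EC50 values come from the luminescent signal (One Glo).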

Structure (SMILES) | EC50 (Homo sapiens, HEK-293T, 7 h) | EC50 (7 hours)
O=C(NC12CC(n3cc(N4CC[C@@H](COC(F)(F)F)C4)cn3)(C1)C2)[C@H]1C[C@@H](O)c2cc(Cl)ccc2O1 [Compound 336, (2R,4R)-6-chloro-4-hydroxy-N-[3-(4-{(3R)-3-[(trifluoromethoxy)methyl]pyrrolidin-1-yl}-1H-pyrazol-1-yl)bicyclo[1.1.1]pentan-1-yl]-3,4-dihydro-2H-1-benzopyran-2-carboxamide] | 0.05 to 0.25 µM | 
COc1ncc(-c2cnn(C34CC(NC(=O)[C@@H]5C[C@@H](O)c6cc(Cl)ccc6O5)(C3)C4)c2)cn1 [Compound 396, (2S,4R)-6-chloro-4-hydroxy-N-{3-[4-(2-methoxypyrimidin-5-yl)-1H-pyrazol-1-yl]bicyclo[1.1.1]pentan-1-yl}-3,4-dihydro-2H-1-benzopyran-2-carboxamide] | 0.05 to 0.25 µM | 
O=C(N[C@H]1CC[C@H](C(=O)N2CC(c3ccc(C(F)(F)F)cc3)C2)CC1)[C@H]1C[C@@H](O)c2cc(Cl)ccc2O1 [Compound 323, (2R,4R)-6-chloro-4-hydroxy-N-[trans-4-{3-[4-(trifluoromethyl)phenyl]azetidine-1-carbonyl}cyclohexyl]-3,4-dihydro-2H-1-benzopyran-2-carboxamide] | < 0.01 µM | 
O=C(NC12CC(n3cc(CCCCOC(F)(F)F)nn3)(C1)C2)[C@H]1C[C@@H](O)c2cc(Cl)ccc2O1 [Compound 465, (2R,4R)-6-chloro-4-hydroxy-N-(3-{4-[4-(trifluoromethoxy)butyl]-1H-1,2,3-triazol-1-yl}bicyclo[1.1.1]pentan-1-yl)-3,4-dihydro-2H-1-benzopyran-2-carboxamide] | < 0.01 µM | 
O=C(COc1ccc(Cl)c(F)c1)N[C@H]1C[C@H]2O[C@@H]1CC2c1nnc([C@H]2C[C@@H](OC(F)(F)F)C2)o1 (mixture of isomers) [Compound 168, 2-(4-chloro-3-fluorophenoxy)-N-[rac-(1R,2S,4R,5S)-5-{5-[cis-3-(trifluoromethoxy)cyclobutyl]-1,3,4-oxadiazol-2-yl}-7-oxabicyclo[2.2.1]heptan-2-yl]acetamide] | 0.25 to 0.5 µM | 
O=C(NC12CC(n3cc(CCOC(F)(F)F)cn3)(C1)C2)[C@H]1C[C@@H](O)c2cc(Cl)c(F)cc2O1 [Compound 515, (2R,4R)-6-chloro-7-fluoro-4-hydroxy-N-(3-{4-[2-(trifluoromethoxy)ethyl]-1H-pyrazol-1-yl}bicyclo[1.1.1]pentan-1-yl)-3,4-dihydro-2H-1-benzopyran-2-carboxamide] | 0.01 to 0.05 µM | 
O=C(CO[C@H]1C[C@@H](OC(F)(F)F)C1)NC12CC(NC(=O)[C@H]3CC(O)c4cc(Cl)ccc4O3)(C1)C2 (single isomer, unassigned) [Compound 293] | < 0.01 µM | 
O=C(COc1ccc(Cl)c(F)c1)NC12CCC(c3nnc([C@H]4C[C@@H](OC(F)(F)F)C4)o3)(CC1)CC2O (stereo partly shown) [Compound 124, 2-(4-chloro-3-fluorophenoxy)-N-(2-hydroxy-4-{5-[(1s,3s)-3-(trifluoromethoxy)cyclobutyl]-1,3,4-oxadiazol-2-yl}bicyclo[2.2.2]octan-1-yl)acetamide] | 0.01 to 0.05 µM | 
O=C(NC12CC(c3cn(-c4ccc(OC(F)(F)F)cc4)nn3)(C1)C2)[C@H]1C[C@@H](O)c2cc(Cl)ccc2O1 [Compound 360, (2R,4R)-6-chloro-4-hydroxy-N-(3-{1-[4-(trifluoromethoxy)phenyl]-1H-1,2,3-triazol-4-yl}bicyclo[1.1.1]pentan-1-yl)-3,4-dihydro-2H-1-benzopyran-2-carboxamide] | < 0.01 µM | 
O=C(NC12CC(n3cc(-c4ccc(Cl)c(F)c4)nn3)(C1)C2)[C@H]1C[C@@H](O)c2cc(Cl)ccc2O1 [Compound 358, (2R,4R)-6-chloro-N-{3-[4-(4-chloro-3-fluorophenyl)-1H-1,2,3-triazol-1-yl]bicyclo[1.1.1]pentan-1-yl}-4-hydroxy-3,4-dihydro-2H-1-benzopyran-2-carboxamide] | < 0.01 µM | 
O=C(NC12CC(n3cc(-c4ccc(C(F)(F)F)cn4)cn3)(C1)C2)[C@H]1C[C@H](O)c2cc(C(F)(F)F)c(F)cc2O1 [Compound 640, (2R,4S)-7-fluoro-4-hydroxy-6-(trifluoromethyl)-N-(3-{4-[5-(trifluoromethyl)pyridin-2-yl]-1H-pyrazol-1-yl}bicyclo[1.1.1]pentan-1-yl)-3,4-dihydro-2H-1-benzopyran-2-carboxamide] | < 0.01 µM | 
O=C(COc1ccc(Cl)c(F)c1)N[C@H]1CC[C@H](n2cc(C(=O)N3CC[C@H](OC(F)(F)F)C3)cn2)CC1 [Compound 609, 2-(4-chloro-3-fluorophenoxy)-N-[(1S,4r)-4-{4-[(3S)-3-(trifluoromethoxy)pyrrolidine-1-carbonyl]-1H-pyrazol-1-yl}cyclohexyl]acetamide] | < 0.01 µM | 
Cc1cc(C)cc(OCC2CN(C34CC(NC(=O)[C@H]5CC(=O)c6cc(Cl)ccc6O5)(C3)C4)C(=O)O2)c1 (stereo partly drawn) [Compound 100, (2R)-6-chloro-N-(3-{5-[(3,5-dimethylphenoxy)methyl]-2-oxo-1,3-oxazolidin-3-yl}bicyclo[1.1.1]pentan-1-yl)-4-oxo-3,4-dihydro-2H-1-benzopyran-2-carboxamide] | > 2 µM | 
O=C(NC12CC(n3cc(C(=O)N4CC[C@H](F)C4)cn3)(C1)C2)[C@H]1C[C@@H](O)c2cc(Cl)ccc2O1 [Compound 382, (2R,4R)-6-chloro-N-(3-{4-[(3S)-3-fluoropyrrolidine-1-carbonyl]-1H-pyrazol-1-yl}bicyclo[1.1.1]pentan-1-yl)-4-hydroxy-3,4-dihydro-2H-1-benzopyran-2-carboxamide] | 0.05 to 0.25 µM | 
O=C(N[C@H]1CC[C@H](n2cc(OCCOC(F)(F)F)cn2)CC1)[C@H]1C[C@@H](O)c2cc(F)c(F)cc2O1 [Compound 638, (2R,4R)-6,7-difluoro-4-hydroxy-N-[(1r,4R)-4-{4-[2-(trifluoromethoxy)ethoxy]-1H-pyrazol-1-yl}cyclohexyl]-3,4-dihydro-2H-1-benzopyran-2-carboxamide] | < 0.01 µM | 
O=C(CO[C@H]1C[C@@H](OC(F)(F)F)C1)NC12CC(NC(=O)[C@H]3C[C@@H](O)c4cc(Cl)c(Cl)cc4O3)(C1)C2 [Compound 494, (2R,4R)-6,7-dichloro-4-hydroxy-N-[3-(2-{[(1s,3S)-3-(trifluoromethoxy)cyclobutyl]oxy}acetamido)bicyclo[1.1.1]pentan-1-yl]-3,4-dihydro-2H-1-benzopyran-2-carboxamide] | < 0.01 µM | 
O=C(NC12CC(n3cc(OCCOC(F)(F)F)cn3)(C1)C2)[C@H]1C[C@H](O)c2cc(Cl)ccc2O1 [Compound 632, (2R,4S)-6-chloro-4-hydroxy-N-(3-{4-[2-(trifluoromethoxy)ethoxy]-1H-pyrazol-1-yl}bicyclo[1.1.1]pentan-1-yl)-3,4-dihydro-2H-1-benzopyran-2-carboxamide] | 0.01 to 0.05 µM | 
O=C(NC12CC(n3cc(C(=O)N4CC[C@H](COC(F)(F)F)C4)cn3)(C1)C2)[C@H]1C[C@@H](O)c2cc(Cl)ccc2O1 [Compound 400, (2R,4R)-6-chloro-4-hydroxy-N-[3-(4-{(3S)-3-[(trifluoromethoxy)methyl]pyrrolidine-1-carbonyl}-1H-pyrazol-1-yl)bicyclo[1.1.1]pentan-1-yl]-3,4-dihydro-2H-1-benzopyran-2-carboxamide] | 0.01 to 0.05 µM | 
O=C(NC12CC(c3cc(OCCCOC(F)(F)F)ncn3)(C1)C2)[C@H]1C[C@@H](O)c2cc(Cl)c(F)cc2O1 [Compound 649, (2R,4R)-6-chloro-7-fluoro-4-hydroxy-N-(3-{6-[3-(trifluoromethoxy)propoxy]pyrimidin-4-yl}bicyclo[1.1.1]pentan-1-yl)-3,4-dihydro-2H-1-benzopyran-2-carboxamide] | < 0.01 µM | 
O=C(NC12CC(c3cnc(OCCOC(F)(F)F)o3)(C1)C2)[C@H]1C[C@@H](O)c2cc(Cl)c(F)cc2O1 [Compound 416, (2R,4R)-6-chloro-7-fluoro-4-hydroxy-N-(3-{2-[2-(trifluoromethoxy)ethoxy]-1,3-oxazol-5-yl}bicyclo[1.1.1]pentan-1-yl)-3,4-dihydro-2H-1-benzopyran-2-carboxamide] | < 0.01 µM | 
O=C(CO[C@H]1C[C@@H](OC(F)(F)F)C1)NC12CC(NC(=O)[C@@H]3CC(O)c4cc(Cl)ccc4O3)(C1)C2 (stereo in doubt) [Compound 295, (2S,4S)-6-chloro-4-hydroxy-N-[3-(2-{[cis-3-(trifluoromethoxy)cyclobutyl]oxy}acetamido)bicyclo[1.1.1]pentan-1-yl]-3,4-dihydro-2H-1-benzopyran-2-carboxamide] |  | 0.01 to 0.05 µM
O=C(COc1ccc(Cl)c(F)c1)NC12CC(n3cc([C@H]4[C@@H]5CN(CC(F)(F)F)C[C@@H]54)cn3)(C1)C2 [Compound 625, 2-(4-chloro-3-fluorophenoxy)-N-(3-{4-[(1R,5S,6s)-3-(2,2,2-trifluoroethyl)-3-azabicyclo[3.1.0]hexan-6-yl]-1H-pyrazol-1-yl}bicyclo[1.1.1]pentan-1-yl)acetamide] | < 0.01 µM | 
O=C(NC12CC(n3cc(OCCOC(F)F)cn3)(C1)C2)[C@H]1C[C@@H](O)c2cc(Cl)ccc2O1 [Compound 420, (2R,4R)-6-chloro-N-(3-{4-[2-(difluoromethoxy)ethoxy]-1H-pyrazol-1-yl}bicyclo[1.1.1]pentan-1-yl)-4-hydroxy-3,4-dihydro-2H-1-benzopyran-2-carboxamide] | 0.01 to 0.05 µM | 
O=C(NC12CC(n3cc(-c4ccc(OC(F)(F)F)cn4)cn3)(C1)C2)[C@@H]1C[C@@H](O)c2cc(Cl)ccc2O1 [Compound 346, (2S,4R)-6-chloro-4-hydroxy-N-(3-{4-[5-(trifluoromethoxy)pyridin-2-yl]-1H-pyrazol-1-yl}bicyclo[1.1.1]pentan-1-yl)-3,4-dihydro-2H-1-benzopyran-2-carboxamide] | < 0.01 µM | 
COc1cc2cn(C34CC(NC(=O)[C@H]5C[C@@H](O)c6cc(Cl)c(F)cc6O5)(C3)C4)nc2cn1 [Compound 498, (2R,4R)-6-chloro-7-fluoro-4-hydroxy-N-[3-(5-methoxy-2H-pyrazolo[3,4-c]pyridin-2-yl)bicyclo[1.1.1]pentan-1-yl]-3,4-dihydro-2H-1-benzopyran-2-carboxamide] | 0.01 to 0.05 µM | 
